Results: patent publication US20230060422A1, “COMBINATION TREATMENT OF LIVER DISEASES USING INTEGRIN INHIBITORS” (NOVARTIS AG, priority 2019, published 2023)
Entries after “also recorded” stand apart in the source; their conditions may differ. Where two headings read alike, the source gives them in different places.

Assays:
[1] = test system: healthy subjects, patients with T2DM, obese patients; settings: cited from earlier work
[2] = test system: Patients with histologically confirmed NASH (F1-F3) or phenotypic NASH; assay: Placebo-controlled, randomized Phase 2a study of licogliflozin, 12 weeks (NCT03205150); assay type: in vivo, human
Protocol: Method: Patients with histologically confirmed NASH (F1-F3) or phenotypic NASH (BMI≥27 kg/m^2 in non-Asians or ≥23 kg/m^2 in Asians, ALT≥50 (males) or ≥35 (females) and type 2 diabetes (T2DM)) received daily oral licogliflozin at 150 mg, 30 mg or placebo in a 2:2:1 ratio for 12 weeks (NCT03205150). The primary endpoint was the effect on ALT level after 12 weeks of treatment. Secondary endpoints include improvement in body weight, liver fat content and AST, amongst others. The study size was 110 of which 77 completed (placebo (n=18); licogliflozin 30 mg (n=25) and licogliflozin 150 mg (n=34)) and are included in the interim analysis.

CDAHFD NASH mouse model [3] = assay: 10-week CDAHFD study, comparison with CWHM12; assay type: in vivo; settings: 4 weeks treatment in 10-week CDAHFD study
Protocol: (§1) CDAHFD injury is a rodent model of NASH displaying liver fat accumulation, inflammation, and fibrosis (Matsumoto 2013). Three types of studies were performed: 1) prophylactic, Compound 1 in an abbreviated 3-week CDAHFD model; 2) therapeutic, Compound 1 for 6 weeks in the 11- to 12-week CDAHFD model; and 3) Compound 1 for 4 weeks in a 10-week CDAHFD model.
Although pan-αv inhibition with CWHM12 reduced pSMAD and OHP levels, selective αvβ1 inhibition was sufficient for antifibrotic activity.

human integrin αVβ1 [4] = target: T1, human integrin αVβ1 (Homo sapiens, UniProt P05556+P06756); assay: ALPHASCREEN proximity-based integrin binding assay; design: 6xHis (on the heterodimer); settings: read-out: Proximity-Based Assy IC50, αvβ1
T1 sequence (P06756 31-992 limits assumed): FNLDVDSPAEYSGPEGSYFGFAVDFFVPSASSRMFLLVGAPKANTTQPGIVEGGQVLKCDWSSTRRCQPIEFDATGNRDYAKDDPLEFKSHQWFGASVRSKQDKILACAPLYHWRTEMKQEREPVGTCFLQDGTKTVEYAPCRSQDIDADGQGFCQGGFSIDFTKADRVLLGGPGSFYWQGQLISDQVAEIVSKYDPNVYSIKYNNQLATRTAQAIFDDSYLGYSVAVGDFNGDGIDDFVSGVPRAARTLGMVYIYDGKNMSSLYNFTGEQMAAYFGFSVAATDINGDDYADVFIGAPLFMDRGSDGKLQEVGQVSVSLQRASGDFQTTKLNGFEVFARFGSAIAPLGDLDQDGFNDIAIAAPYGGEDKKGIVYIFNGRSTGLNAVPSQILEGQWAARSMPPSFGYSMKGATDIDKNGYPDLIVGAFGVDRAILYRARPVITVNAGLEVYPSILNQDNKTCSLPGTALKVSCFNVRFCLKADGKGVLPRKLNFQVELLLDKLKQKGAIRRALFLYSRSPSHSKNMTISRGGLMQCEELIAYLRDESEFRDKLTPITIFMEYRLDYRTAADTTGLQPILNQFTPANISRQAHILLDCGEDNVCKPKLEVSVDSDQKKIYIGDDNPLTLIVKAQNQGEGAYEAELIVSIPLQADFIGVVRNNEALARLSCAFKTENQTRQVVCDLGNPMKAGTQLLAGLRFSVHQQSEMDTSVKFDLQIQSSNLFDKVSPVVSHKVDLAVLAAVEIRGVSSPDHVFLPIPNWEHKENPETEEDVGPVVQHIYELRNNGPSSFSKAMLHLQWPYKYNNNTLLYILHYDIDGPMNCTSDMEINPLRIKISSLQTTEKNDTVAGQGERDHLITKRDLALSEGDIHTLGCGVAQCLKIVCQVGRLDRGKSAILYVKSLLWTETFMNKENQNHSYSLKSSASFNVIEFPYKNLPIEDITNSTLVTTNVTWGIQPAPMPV
T1 sequence (P05556 21-728 limits assumed): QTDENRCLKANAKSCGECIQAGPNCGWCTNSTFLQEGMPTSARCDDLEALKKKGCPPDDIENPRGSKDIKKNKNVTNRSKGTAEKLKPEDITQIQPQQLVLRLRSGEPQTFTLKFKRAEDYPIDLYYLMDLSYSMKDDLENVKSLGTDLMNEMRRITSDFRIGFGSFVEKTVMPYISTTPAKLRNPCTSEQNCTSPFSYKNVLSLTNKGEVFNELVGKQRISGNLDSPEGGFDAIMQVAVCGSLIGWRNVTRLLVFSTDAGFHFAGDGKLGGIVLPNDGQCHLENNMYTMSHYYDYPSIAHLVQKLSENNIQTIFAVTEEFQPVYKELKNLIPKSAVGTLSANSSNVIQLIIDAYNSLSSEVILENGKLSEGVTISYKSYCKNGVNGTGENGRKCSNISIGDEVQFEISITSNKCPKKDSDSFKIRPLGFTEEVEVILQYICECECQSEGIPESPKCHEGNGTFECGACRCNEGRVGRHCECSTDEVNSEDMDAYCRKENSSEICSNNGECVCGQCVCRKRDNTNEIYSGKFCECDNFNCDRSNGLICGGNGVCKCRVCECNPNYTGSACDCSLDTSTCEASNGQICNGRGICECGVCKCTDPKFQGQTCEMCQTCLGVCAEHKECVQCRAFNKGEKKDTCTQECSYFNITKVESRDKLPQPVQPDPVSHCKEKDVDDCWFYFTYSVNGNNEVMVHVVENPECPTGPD
Protocol: (§2) Compound 1 was tested for αVβ1 or αVβ6 integrin biochemical potency using the ALPHASCREEN® (Perkin Elmer, Waltham, Mass.) proximity-based assay (a bead-based, non-radioactive Amplified Luminescent Proximity Homogeneous Assay) as described previously (Ullman E F et al., Luminescent oxygen channeling immunoassay: Measurement of particle binding kinetics by chemiluminescence. Proc. Natl. Acad. Sci. USA, Vol. 91, pp. 5426-5430, June 1994). To gauge the potency of inhibitors of binding to human integrin αVβ1 or αvβ6, the inhibitor compound and the integrin were incubated together with recombinant TGFβ1 LAP and biotinylated anti-LAP antibody plus acceptor and donor beads, following the manufacturer's recommendations. The donor beads were coated with streptavidin. […] All incubations occurred at room temperatures in 50 mM Tris-HCl, pH 7.5, 0.1% BSA supplemented with 1 mM each CaCl2 and MgCl2. The order of reagent addition was as follows: 1. αVβ1 or αVβ6 integrin, test inhibitor Compound 1, LAP, biotinylated anti-LAP antibody and acceptor beads were all added together. 2. After 2 hours, donor beads were added. After another 30 min incubation, samples were read.

human integrin αvβ6 [5] = target: T2, human integrin αvβ6 (Homo sapiens, UniProt P06756+P18564); assay: ALPHASCREEN proximity-based integrin binding assay; design: 6xHis (on the heterodimer); settings: read-out: Proximity-Based Assy IC50, αvβ6
T2 sequence (P06756 31-992 limits assumed): as the sequence (P06756 31-992 limits assumed) above
T2 sequence (P18564 22-707 limits assumed): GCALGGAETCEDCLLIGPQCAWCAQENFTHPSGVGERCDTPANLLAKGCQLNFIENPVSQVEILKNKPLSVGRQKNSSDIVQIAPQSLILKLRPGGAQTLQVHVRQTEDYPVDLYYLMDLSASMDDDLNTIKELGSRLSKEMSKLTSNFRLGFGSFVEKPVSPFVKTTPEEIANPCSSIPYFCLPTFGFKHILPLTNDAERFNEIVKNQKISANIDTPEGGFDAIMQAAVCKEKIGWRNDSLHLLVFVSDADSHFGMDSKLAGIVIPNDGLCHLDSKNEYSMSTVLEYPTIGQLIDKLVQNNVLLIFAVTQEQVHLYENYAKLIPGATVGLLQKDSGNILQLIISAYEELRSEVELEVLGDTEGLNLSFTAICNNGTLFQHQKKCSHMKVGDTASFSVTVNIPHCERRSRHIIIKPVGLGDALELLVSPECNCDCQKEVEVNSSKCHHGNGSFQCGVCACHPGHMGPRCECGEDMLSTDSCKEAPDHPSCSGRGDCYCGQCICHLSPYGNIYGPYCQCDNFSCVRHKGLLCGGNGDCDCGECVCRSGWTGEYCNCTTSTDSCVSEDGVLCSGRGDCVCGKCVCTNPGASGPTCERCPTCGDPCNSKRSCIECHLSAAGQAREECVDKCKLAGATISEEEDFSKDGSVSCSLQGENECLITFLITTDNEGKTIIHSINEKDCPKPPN
Protocol: as §2

[6] = test system: precision cut liver slices from cirrhotic NASH patient explants; assay: Profibrotic gene expression and fibrosis biomarkers in precision cut liver slices; assay type: cell-based, human; design: reduction of gene expression of collagen, type 1, alpha 1 (COL1A1) / reduction of the level of FBN-C in culture media / reduction of PRO-C1 in culture media / reduction of PRO-C3 in culture media / reduction of PRO-C4 in culture media: concentration or dose not given beside the values
Protocol: The ability of Compound 1 to inhibit the expression of profibrotic genes and decrease biomarkers of fibrosis was measured in precision cut liver slices generated using cirrhotic liver tissues from NASH patient explants and from rodent models of liver fibrosis and NASH.
Data are mean +/−standard deviation from the 5 cirrhotic NASH patients. DMSO was used as the solvent and utilized at a constant concentration (0.1%) across the different groups. […] was used as a positive control.

[7] = test system: healthy male and female participants; assay: First-in-human single and multiple ascending dose study; assay type: in vivo; settings: single and multiple (7 days) ascending doses, thus far
Protocol: Part A of the study was a first-in-human, randomized, double-blind, placebo-controlled, parallel-group, single ascending dose study of the safety, tolerability, and PK of Compound 1 in a maximum of […] healthy male and female (non-childbearing potential) participants. Forty participants will be enrolled in up to 5 sequential cohorts.
Part B of the study is on-going and was initiated after the first 2 cohorts in Part A of the study had been completed. The doses in Part B were determined from Part A of the study and were not higher than the highest dose that was administered in Part A of the study.
Part B of the study is a randomized, double-blind, placebo-controlled, parallel-group, multiple ascending dose study of the PK, PD, safety, and tolerability of Compound 1 administered for 7 days in a maximum of 40 healthy male and female (non-childbearing potential) participants.

CDAHFD NASH mouse model [8] = assay: Prophylactic abbreviated 3-week CDAHFD NASH model; assay type: in vivo; settings: high dose
Protocol: as §1

human integrin αVβ1 [9] = target: T1, human integrin αVβ1; assay: Solid phase integrin binding assay (TGFβ1 LAP binding)
Protocol: (§3) Microplates were coated with recombinant human integrin αVβ1 or αVβ6 (2 μg/mL) in PBS (100 μL/well 25° C., overnight). The coating solution was removed, washed with wash buffer (0.05% Tween 20; 0.5 mM MnCl2; in 1×TBS). The plate was blocked with 200 μL/well of Block Buffer (1% BSA; 5% sucrose; 0.5 mM MnCl2; in 1×TBS) at 37° C. for 2 h. Dilutions of Compound 1 and recombinant TGFβ1 LAP (0.67 μg/mL) in binding buffer (0.05% BSA; 2.5% sucrose; 0.5 mM MnCl2; in 1×TBS) were added. The plate was incubated for 2 hours at 25° C., washed, and incubated for 1 hour with Biotin-Anti-hLAP. Bound antibody was detected by peroxidase-conjugated streptavidin. The IC50 values for the testing compound were calculated by a four-parameter logistic regression.

human integrin αvβ6 [10] = target: T2, human integrin αvβ6; assay: as above
Protocol: as §3

CDAHFD NASH mouse model [11] = assay: Therapeutic 11- to 12-week CDAHFD injury studies; assay type: in vivo
Protocol: as §1
Compound 1 was tested therapeutically in 11- to 12-week CDAHFD injury studies at medium, high and highest doses across 3 independent studies.

[12] = test system: murine CCl4 model of liver fibrosis; assay: 3-week murine CCl4 model of liver fibrosis; assay type: in vivo, mice; settings: all doses, dosed during the final week of injury
Protocol: Antifibrotic activity of Compound 1 was established in an abbreviated, 3-week, murine CCl4 model of liver fibrosis. CCl4 is a hepatotoxin that when injected into mice results in liver fibrosis (Constandinou 2005). Compound 1 was dosed during the final week of injury.

[13] = 30 mg, 12 weeks, interim analysis
[14] = 150 mg, 12 weeks, interim analysis
[15] = did not achieve statistical significance
[16] = two days of treatment, slices from 5 cirrhotic NASH patients
[17] = all doses (medium, high, highest), therapeutic, 3 independent studies

CCc1ccc([C@@H]2O[C@H](CO)[C@@H](O)[C@H](O)[C@H]2O)cc1Cc1ccc2c(c1)OCCO2 [licogliflozin, (2S,3R,4R,5S,6R)-2-(3-((2,3-dihydrobenzo[b][1,4]dioxin-6-yl)methyl)-4-ethylphenyl)-6-(hydroxymethyl)tetrahydro-2H-pyran-3,4,5-triol]
weight loss in obese patients ([1]; 150 mg daily dose, 12 week treatment): ~6%
safety and tolerability ([1]; 150 mg once daily, twelve weeks, normoglycemic and dysglycemic subjects): generally safe and well tolerated
dose-limiting toxicity ([1]; 150 mg once daily, twelve weeks): diarrhea
safety and tolerability ([1]; healthy subjects and patients with T2DM): safe and tolerated
pharmacokinetic profile ([1]; human, in vivo): favorable pharmacokinetic profile
placebo-adjusted weight loss ([1]; over 2 weeks, healthy subjects and patients with T2DM): up to 3%
Absolute reduction in liver fat [2, 13]: 2.71%
Diarrhea (most common adverse event), patients reporting [2, 13]: 40%
Placebo adjusted reduction in HbA1c (absolute change) [2, 13]: 0.81%
Relative reduction in liver fat content [2, 13]: 10%
patients achieving at least 5% absolute reduction in liver fat [2, 13]: 43.5%
proportion of patients with at least a 30% relative reduction in liver fat content [2, 13]: 39.5%
reduction in AST [2, 13]: 23%
reduction in GGT [2, 13]: 26%
placebo-adjusted reduction in GGT ([2]; 30 mg, Week 12, full analysis): 24%
placebo-adjusted reduction in serum ALT ([2]; 30 mg, Week 12, full analysis): 21%
placebo-adjusted reduction in serum AST ([2]; 30 mg, Week 12, full analysis): 21%
Absolute reduction in liver fat [2, 14]: 4.45%
Diarrhea (most common adverse event), patients reporting [2, 14]: 76.5%
Placebo adjusted reduction in HbA1c (absolute change) [2, 14]: 0.96%
Relative reduction in liver fat content [2, 14]: 22%
patients achieving at least 5% absolute reduction in liver fat [2, 14]: 63.3%
proportion of patients with at least a 30% relative reduction in liver fat content [2, 14]: 66.7%
reduction in AST [2, 14]: 30%
reduction in GGT [2, 14]: 32%
placebo-adjusted reduction in GGT ([2]; 150 mg, Week 12, full analysis): 36%
placebo-adjusted reduction in serum ALT ([2]; 150 mg, Week 12, full analysis): 32%
placebo-adjusted reduction in serum AST ([2]; 150 mg, Week 12, full analysis): 32%
safety and tolerability ([2]; 12 weeks of treatment): safe and tolerable
absolute and relative liver fat content ([2]; 12 weeks, full analysis): Dose-dependent decreases
HOMA-IR (insulin sensitivity) ([2]; Week 12, full analysis): improvements
HbA1c (glycemic control) ([2]; Week 12, full analysis): improvements
body weight compared with placebo ([2]; Week 12, full analysis): Statistically significant reductions
waist circumference compared with placebo ([2]; Week 12, full analysis): Statistically significant reductions
Placebo adjusted reduction in body weight ([2]; both doses (150 mg and 30 mg), 12 weeks, interim analysis): ~4%

CC(C)(C)c1cc(Br)cc([C@H](CC(=O)O)NC(=O)CNC(=O)c2cc(O)cc(NC3=NCC(O)CN3)c2)c1 (stereo partly drawn) [CWHM12, (3S)—N-[3-hydroxy-5-[(1,4,5,6-tetrahydro-5-hydroxy-2-pyrimidinyl)amino]benzoyl] glycyl-3-[3-bromo-5-(1,1-dimethylethyl)phenyl]-β-alanine]
reduction of OHP concentrations (CDAHFD NASH mouse model [3]): 30%
reduction of pSMAD3 levels (CDAHFD NASH mouse model [3]): 61%

CC1(C(=O)N[C@@H](CCCCCCCc2ccc3c(n2)NCCC3)C(=O)O)CCOCC1 [Compound 1, (S)-2-(4-methyltetrahydro-2H-pyran-4-carboxamido)-9-(5,6,7,8-tetrahydro-1,8-naphthyridin-2-yl)nonanoic acid]
reduction of OHP concentrations (CDAHFD NASH mouse model [3]): 24%
reduction of pSMAD3 levels (CDAHFD NASH mouse model [3]): 40%
IC50 (human integrin αVβ1 [4]): 50 to 250 nM
IC50 (human integrin αvβ6 [5]): < 50 nM
reduction of PRO-C1 in culture media [6, 15]: 34%
reduction of PRO-C3 in culture media [6, 15]: 16%
reduction of PRO-C4 in culture media [6, 15]: 15%
reduction of the level of FBN-C in culture media ([6]; significant): 26%
metalloproteinase inhibitor 1 (TIMP1) gene expression [6, 16]: reduced
reduction of gene expression of collagen, type 1, alpha 1 (COL1A1) [6, 16]: 39%
tolerability in healthy volunteers [7]: well tolerated
expression of Ehhadh (CDAHFD NASH mouse model [8]; both studies): significantly elevated
gene expression of collagens (CDAHFD NASH mouse model [8]; one of the two studies): Significantly reduced
decrease of pSMAD3 levels in the liver (CDAHFD NASH mouse model [8]; prophylactic, 3-week CDAHFD): 19%
reduction of hepatic OHP concentrations (CDAHFD NASH mouse model [8]; prophylactic, both studies): ~30%
IC50 (human integrin αVβ1 [9]): < 50 nM
IC50 (human integrin αvβ6 [10]): < 50 nM
reduction of hepatic OHP (CDAHFD NASH mouse model [11]; [17]): up to 38%
reduction of pSMAD3 levels (CDAHFD NASH mouse model [11]; [17]): up to 57%
Collagen gene expression (Col1a1 and Col3a1) (CDAHFD NASH mouse model [11]; high and highest doses): significantly reduced
gene expression of profibrotic markers Ctgf, Mmp-2, and Timp1 (CDAHFD NASH mouse model [11]; high and highest doses): significantly reduced
Gene expression of Acox1 and Ehhadh (CDAHFD NASH mouse model [11]; mouse, in vivo): significantly increased
collagen area (histological analysis) (CDAHFD NASH mouse model [11]; mouse, in vivo): significant reduction
composite fibrosis score (second harmonic generation imaging): quantity and quality of the collagen fibers (CDAHFD NASH mouse model [11]; mouse, in vivo): significant reduction
reduction in OHP concentration (CDAHFD NASH mouse model [11]; separate sentence of b235, dose not stated): 24%
Levels of phosphorylated SMAD3 (pSMAD3)/SMAD3 in the liver [12]: significantly reduced
hepatic Col1a1, Col1a2, and Col3a1 expression [12]: significant reduction; also recorded: significantly reduced
